For three compounds, MIC results are on record in patent EP0308783A2, “Antimycotic preparations” (BAYER AG, priority 1987, dated 1989).

Converted amounts (≈) assume the structure as drawn. A value given as a limit tells only on which side of the number the result lay.

What all share (test): antimycotic in-vitro activity, serial dilution test
What all share (format): cell-based

For one assay, the system named is Aspergillus fumigatus. The settings on record: Sabouraud's milieu d'epreuve, 28°C to 37 C, 96 hours, inoculum 5 x 10^3 to 10^4 germs/ml, read-out: MHK-Werte in µg/ml Närmedium Aspergillus fumigatus. As to the method:
(§1) Die in-vitro-Prüfungen wurden im Reihenverdünnungstest mit Keiminokula von durchschnittlich 5 x 10^3 bis 10^4 Keimen/mi Substrat durchgeführt. Als Nährmedium dienten • a) für Dermatophyten und Schimmelpilze: Sabouraud's milieu d'epreuve • b) für Hefen: Fleischextrakt-Traubenzucker-Bouillon.
(§2) Die Bebrütungstemperatur betrug 28°C bis 37 C, die Bebrütungsdauer lag bei 24 bis 96 Stunden bei Hefen und 96 Stunden bei Dermatophyten und Schimmelpilzen.

The subject of the next assay is Candida albicans. The settings on record: Fleischextrakt-Traubenzucker-Bouillon, 28°C to 37 C, 24 to 96 hours, inoculum 5 x 10^3 to 10^4 germs/ml, read-out: MHK-Werte in µg/ml Närmedium Candida albicans. The procedure: as §1, §2
Another assay concerns Trichophyton mentagr. To be noted: Sabouraud's milieu d'epreuve, 28°C to 37 C, 96 hours, inoculum 5 x 10^3 to 10^4 germs/ml, read-out: MHK-Werte in µg/ml Närmedium Trichophyton mentagr. As to the method: as §1, §2
A further assay deals with Torulopsis glabrata. The settings on record: Nakaseomyces glabratus; Fleischextrakt-Traubenzucker-Bouillon; 28°C to 37 C; 24 to 96 hours; inoculum 5 x 10^3 to 10^4 germs/ml; read-out: MHK-Werte in µg/ml Närmedium Torulopsis glabrata. The procedure:
as §1, §2

The test system of the next assay is Microsporum canis. To be noted: Sabouraud's milieu d'epreuve, 28°C to 37 C, 96 hours, inoculum 5 x 10^3 to 10^4 germs/ml, read-out: MHK-Werte in µg/ml Närmedium Microsporum canis. The procedure:
as §1, §2

For the compound `OC(Cn1cncn1)(c1ccc(Cl)cc1)C1(F)CC1` (stereo not drawn) [(A), 1-(4-Chlorphenyl)-1-(1-fluor-cycloprop-1-yl)-2-(1,2,4-triazol-1-yl)-ethan-1-ol], the MIC in the assay on Aspergillus fumigatus, with Candida albicans and in the assay on Trichophyton mentagr. was more than 64 µg/mL throughout.
Regarding `OC(Cn1cncn1)(c1ccc(Cl)cc1)C1(Oc2ccc(Cl)cc2Cl)CC1` (stereo not drawn) [(B), 1-(4-Chlorphenyl)-1-[1-(2,4-dichiorphenoxy)-cycloprop-1-yl]-2-(1,2,4-triazol-1-yl)-ethan-1-ol], the MIC was more than 64 µg/mL in the assay with Aspergillus fumigatus, 16 µg/mL (≈ 37.7 µM) in the assay on Candida albicans, 64 µg/mL (≈ 151 µM) with Torulopsis glabrata and 64 µg/mL (≈ 151 µM) with Trichophyton mentagr..
With `OC(COc1ccc(Cl)cc1)(Cn1cncn1)C1(Cl)CC1` (stereo not drawn) [Beispiel 1, 2-(1-Chlorcyclopropyl)-1-(4-chlorphenoxy)-3-(1,2,4-triazol-1-yl)-propan-2-ol], the MIC in the assay on Aspergillus fumigatus is 2 µg/mL (≈ 6.09 µM); in the assay with Candida albicans it was 16 µg/mL (≈ 48.8 µM); with Microsporum canis it was less than 1 µg/mL; in the assay with Torulopsis glabrata, 16 µg/mL (≈ 48.8 µM); in the assay on Trichophyton mentagr. it was less than 1 µg/mL.
